Assay results reported in paper PMC11637875, “Discovery of novel PARP1/NRP1 dual-targeting inhibitors with strong antitumor potency” (Frontiers in Pharmacology, 2024).

Tests used:
[1] = target: BTK (Homo sapiens, UniProt Q06187); assay: Selectivity profile (123 kinase panel); type: biochemical
[2] = target: ABL2 (Homo sapiens, UniProt P42684); assay: Selectivity profile (123 kinase panel); type: biochemical
[3] = target: CK1γ1 (Homo sapiens, UniProt Q9HCP0); assay: Selectivity profile (123 kinase panel); type: biochemical
[4] = target: FLT1 (Homo sapiens, UniProt P17948); assay: Selectivity profile (123 kinase panel); type: biochemical
[5] = target: FGFR1 (Homo sapiens, UniProt P11362); assay: Selectivity profile (123 kinase panel); type: biochemical
[6] = target: MUSK (Homo sapiens, UniProt O15146); assay: Selectivity profile (123 kinase panel); type: biochemical
[7] = target: BRSK2 (Homo sapiens, UniProt Q8IWQ3); assay: Selectivity profile (123 kinase panel); type: biochemical
[8] = target: DNA-PK (Homo sapiens, UniProt P78527); assay: Selectivity profile (123 kinase panel); type: biochemical
[9] = target: DYRK1B (Homo sapiens, UniProt Q9Y463); assay: Selectivity profile (123 kinase panel); type: biochemical
[10] = target: NRP2 (Homo sapiens, UniProt O60462); assay: Selectivity profile (other isoforms of PARP and NRP family); type: biochemical
[11] = target: Erk5 (Homo sapiens, UniProt Q13164); assay: Selectivity profile (123 kinase panel); type: biochemical
[12] = target: KDR (Homo sapiens, UniProt P35968); assay: Selectivity profile (123 kinase panel); type: biochemical
[13] = target: PARP13 (Homo sapiens, UniProt Q7Z2W4); assay: Selectivity profile (other isoforms of PARP and NRP family); type: biochemical
[14] = target: JNK1 (Homo sapiens, UniProt P45983); assay: Selectivity profile (123 kinase panel); type: biochemical
[15] = target: EPHA4 (Homo sapiens, UniProt P54764); assay: Selectivity profile (123 kinase panel); type: biochemical
[16] = target: MARK2 (Homo sapiens, UniProt Q7KZI7); assay: Selectivity profile (123 kinase panel); type: biochemical
[17] = target: CK1γ3 (Homo sapiens, UniProt Q9Y6M4); assay: Selectivity profile (123 kinase panel); type: biochemical
[18] = target: Erk7 (Homo sapiens, UniProt Q8TD08); assay: Selectivity profile (123 kinase panel); type: biochemical
[19] = target: CRAF (Homo sapiens, UniProt P04049, Y340D/Y341D); assay: Selectivity profile (123 kinase panel); type: biochemical
[20] = target: HIPK3 (Homo sapiens, UniProt Q9H422); assay: Selectivity profile (123 kinase panel); type: biochemical
[21] = target: PARP12 (Homo sapiens, UniProt Q9H0J9); assay: Selectivity profile (other isoforms of PARP and NRP family); type: biochemical
[22] = target: MLK1 (Homo sapiens, UniProt P80192); assay: Selectivity profile (123 kinase panel); type: biochemical
[23] = target: KIT (Homo sapiens, UniProt P10721); assay: Selectivity profile (123 kinase panel); type: biochemical
[24] = target: MINK (Homo sapiens, UniProt Q8N4C8); assay: Selectivity profile (123 kinase panel); type: biochemical
[25] = system: HEK-293; assay: Cytotoxicity on normal human cells (MTT); type: cell-based; conditions: HEK293, HEK-293 normal human cells
Experimental: (§1) Cell viability was measured by MTT assays. MDA-MB-231, MCF-10A, L02, FHC, PNT1A, HEL-299, and HEK-293 cell lines were seeded in 96-well plates at 5 ×10^4 cells/well and incubated overnight. Different concentrations of PPNR1-5 or positive control were then added to each well and cultured at 37°C for 72 h. Afterward, the medium was removed. MTT (5 mg/mL) was dissolved in phosphate-buffered saline (PBS) and filter-sterilized, and then, 20 μL of the prepared MTT solution was added to each well, and the cells were incubated for another 4 h until a purple precipitate was visible. The supernatant was removed by centrifugation, and DMSO (150 μL/well) was added to dissolve the insoluble crystals. The absorbance was determined using an enzyme-linked immunosorbent assay reader at a test wavelength of 570 nm. The assays were performed three times in a parallel manner. The non-linear regression was used to plot a Dose-Response-Inhibition to determine the value of the IC50. The cell inhibition rate was calculated at 2 μM concentration of compound treatment. The data were analyzed using GraphPad Prism 9 software.

[26] = system: HEL-299; assay: Cytotoxicity on normal human cells (MTT); type: cell-based; conditions: HEL-299 normal human cells
Experimental: as §1

[27] = system: L02; assay: Cytotoxicity on normal human cells (MTT); type: cell-based
Experimental: as §1

[28] = system: MCF-10A; assay: Cytotoxicity on normal human cells (MTT); type: cell-based; conditions: MCF-10A normal human mammary epithelial cells
Experimental: as §1

[29] = system: FHC; assay: Cytotoxicity on normal human cells (MTT); type: cell-based
Experimental: as §1

[30] = system: PNT1A; assay: Cytotoxicity on normal human cells (MTT); type: cell-based
Experimental: as §1

[31] = target: DDR2 (Homo sapiens, UniProt Q16832); assay: Selectivity profile (123 kinase panel); type: biochemical
[32] = target: NEK9 (Homo sapiens, UniProt Q8TD19); assay: Selectivity profile (123 kinase panel); type: biochemical
[33] = target: MLK3 (Homo sapiens, UniProt Q16584); assay: Selectivity profile (123 kinase panel); type: biochemical
[34] = target: JNK2 (Homo sapiens, UniProt P45984); assay: Selectivity profile (123 kinase panel); type: biochemical
[35] = target: CLK4 (Homo sapiens, UniProt Q9HAZ1); assay: Selectivity profile (123 kinase panel); type: biochemical
[36] = target: FRK (Homo sapiens, UniProt P42685); assay: Selectivity profile (123 kinase panel); type: biochemical
[37] = target: EPHA1 (Homo sapiens, UniProt P21709); assay: Selectivity profile (123 kinase panel); type: biochemical
[38] = target: MRCKα (Homo sapiens, UniProt Q5VT25); assay: Selectivity profile (123 kinase panel); type: biochemical

Measured: IC50

Chain of NEK9 (Q8TD19 whole entry): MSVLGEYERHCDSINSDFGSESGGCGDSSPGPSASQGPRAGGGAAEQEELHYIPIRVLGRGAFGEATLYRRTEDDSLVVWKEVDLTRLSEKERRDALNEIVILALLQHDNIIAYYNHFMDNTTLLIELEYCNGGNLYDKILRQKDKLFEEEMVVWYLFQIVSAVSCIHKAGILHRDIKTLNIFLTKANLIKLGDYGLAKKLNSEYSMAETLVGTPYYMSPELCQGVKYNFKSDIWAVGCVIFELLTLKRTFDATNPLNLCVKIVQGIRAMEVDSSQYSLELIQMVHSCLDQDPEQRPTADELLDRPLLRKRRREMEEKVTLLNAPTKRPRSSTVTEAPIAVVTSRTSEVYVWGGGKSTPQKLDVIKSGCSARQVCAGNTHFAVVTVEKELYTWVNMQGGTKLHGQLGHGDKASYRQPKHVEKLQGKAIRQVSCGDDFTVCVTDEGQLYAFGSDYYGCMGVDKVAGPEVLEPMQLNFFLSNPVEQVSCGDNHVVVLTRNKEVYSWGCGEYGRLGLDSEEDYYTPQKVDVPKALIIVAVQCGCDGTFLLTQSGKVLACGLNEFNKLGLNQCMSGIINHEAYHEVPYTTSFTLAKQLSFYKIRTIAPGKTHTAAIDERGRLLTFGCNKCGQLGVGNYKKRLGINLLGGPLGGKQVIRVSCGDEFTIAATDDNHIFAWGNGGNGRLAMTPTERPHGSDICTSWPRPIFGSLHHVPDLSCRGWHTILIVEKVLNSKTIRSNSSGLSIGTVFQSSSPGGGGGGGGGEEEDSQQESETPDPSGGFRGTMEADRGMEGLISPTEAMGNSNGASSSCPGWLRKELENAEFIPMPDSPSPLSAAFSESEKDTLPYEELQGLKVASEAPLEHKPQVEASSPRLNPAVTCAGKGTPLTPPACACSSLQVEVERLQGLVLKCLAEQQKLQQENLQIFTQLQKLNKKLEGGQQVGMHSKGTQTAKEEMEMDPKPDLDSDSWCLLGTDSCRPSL
Chain of EPHA1 (P21709 26-976): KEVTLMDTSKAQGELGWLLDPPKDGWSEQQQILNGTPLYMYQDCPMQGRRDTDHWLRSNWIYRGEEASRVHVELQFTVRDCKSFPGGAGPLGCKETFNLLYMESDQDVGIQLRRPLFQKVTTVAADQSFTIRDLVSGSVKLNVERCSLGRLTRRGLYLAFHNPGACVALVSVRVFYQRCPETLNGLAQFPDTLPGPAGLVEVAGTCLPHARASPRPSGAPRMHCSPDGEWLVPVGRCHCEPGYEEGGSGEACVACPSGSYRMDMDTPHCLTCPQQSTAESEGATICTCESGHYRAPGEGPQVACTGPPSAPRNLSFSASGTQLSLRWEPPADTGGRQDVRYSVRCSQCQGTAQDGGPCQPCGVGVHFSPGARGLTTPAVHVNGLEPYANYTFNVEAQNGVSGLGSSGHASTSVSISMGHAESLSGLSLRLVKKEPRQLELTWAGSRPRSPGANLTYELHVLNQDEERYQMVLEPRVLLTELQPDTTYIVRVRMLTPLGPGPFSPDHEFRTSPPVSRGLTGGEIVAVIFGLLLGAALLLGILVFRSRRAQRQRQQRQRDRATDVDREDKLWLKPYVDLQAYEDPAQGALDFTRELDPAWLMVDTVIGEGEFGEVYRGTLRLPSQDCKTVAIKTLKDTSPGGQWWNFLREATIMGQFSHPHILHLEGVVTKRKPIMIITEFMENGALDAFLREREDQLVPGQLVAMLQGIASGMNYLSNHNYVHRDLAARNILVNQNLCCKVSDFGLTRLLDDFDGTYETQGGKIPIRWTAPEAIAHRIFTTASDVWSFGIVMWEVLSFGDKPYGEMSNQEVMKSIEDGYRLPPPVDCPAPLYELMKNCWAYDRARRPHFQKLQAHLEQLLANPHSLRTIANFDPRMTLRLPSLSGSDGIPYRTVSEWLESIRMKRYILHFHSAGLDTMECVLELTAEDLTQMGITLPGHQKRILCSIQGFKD
Chain of CK1γ1 (Q9HCP0 whole entry): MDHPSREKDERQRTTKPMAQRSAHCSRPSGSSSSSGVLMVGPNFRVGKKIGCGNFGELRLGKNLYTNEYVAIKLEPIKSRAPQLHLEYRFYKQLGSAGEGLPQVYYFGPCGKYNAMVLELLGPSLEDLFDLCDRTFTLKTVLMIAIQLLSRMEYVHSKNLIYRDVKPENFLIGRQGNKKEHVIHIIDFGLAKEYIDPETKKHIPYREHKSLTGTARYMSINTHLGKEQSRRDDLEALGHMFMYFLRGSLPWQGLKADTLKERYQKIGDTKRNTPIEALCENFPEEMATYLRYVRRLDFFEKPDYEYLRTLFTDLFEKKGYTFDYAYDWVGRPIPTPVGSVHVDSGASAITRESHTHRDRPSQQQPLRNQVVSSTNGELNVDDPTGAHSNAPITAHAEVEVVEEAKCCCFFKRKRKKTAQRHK
Chain of JNK2 (P45984 whole entry): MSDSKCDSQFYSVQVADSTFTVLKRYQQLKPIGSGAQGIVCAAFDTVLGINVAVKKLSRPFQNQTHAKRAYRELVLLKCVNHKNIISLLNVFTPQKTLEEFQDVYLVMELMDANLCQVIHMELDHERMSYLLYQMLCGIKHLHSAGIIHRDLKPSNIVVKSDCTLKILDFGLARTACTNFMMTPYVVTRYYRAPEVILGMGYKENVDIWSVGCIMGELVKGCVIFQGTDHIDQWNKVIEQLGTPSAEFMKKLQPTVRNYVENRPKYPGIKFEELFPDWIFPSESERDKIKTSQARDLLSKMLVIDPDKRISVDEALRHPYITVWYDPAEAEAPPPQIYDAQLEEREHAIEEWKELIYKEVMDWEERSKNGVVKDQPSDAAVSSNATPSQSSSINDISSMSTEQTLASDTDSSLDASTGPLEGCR
Chain of FGFR1 (P11362 22-822, species assumed): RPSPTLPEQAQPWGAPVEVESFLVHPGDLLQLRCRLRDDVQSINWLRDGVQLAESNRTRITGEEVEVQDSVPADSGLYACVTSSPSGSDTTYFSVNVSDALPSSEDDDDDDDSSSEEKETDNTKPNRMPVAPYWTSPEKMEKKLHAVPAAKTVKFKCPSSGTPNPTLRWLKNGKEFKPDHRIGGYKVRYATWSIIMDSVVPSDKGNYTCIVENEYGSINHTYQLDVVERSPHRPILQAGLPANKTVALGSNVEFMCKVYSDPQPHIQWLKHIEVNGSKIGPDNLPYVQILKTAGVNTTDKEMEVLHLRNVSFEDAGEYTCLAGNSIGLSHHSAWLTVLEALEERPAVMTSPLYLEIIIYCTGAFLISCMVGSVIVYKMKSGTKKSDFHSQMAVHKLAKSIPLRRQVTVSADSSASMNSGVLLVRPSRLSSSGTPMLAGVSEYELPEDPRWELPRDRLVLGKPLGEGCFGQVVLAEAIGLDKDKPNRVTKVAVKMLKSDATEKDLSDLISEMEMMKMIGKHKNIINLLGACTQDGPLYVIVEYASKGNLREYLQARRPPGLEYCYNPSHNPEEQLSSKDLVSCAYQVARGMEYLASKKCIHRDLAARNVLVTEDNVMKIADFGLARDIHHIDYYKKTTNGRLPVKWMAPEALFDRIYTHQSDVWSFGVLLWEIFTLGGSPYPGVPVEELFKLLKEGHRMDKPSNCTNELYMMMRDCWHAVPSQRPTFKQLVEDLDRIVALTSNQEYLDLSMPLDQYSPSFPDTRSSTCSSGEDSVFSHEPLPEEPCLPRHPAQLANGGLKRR
Chain of CRAF (P04049 306-648 Y340D/Y341D limits assumed): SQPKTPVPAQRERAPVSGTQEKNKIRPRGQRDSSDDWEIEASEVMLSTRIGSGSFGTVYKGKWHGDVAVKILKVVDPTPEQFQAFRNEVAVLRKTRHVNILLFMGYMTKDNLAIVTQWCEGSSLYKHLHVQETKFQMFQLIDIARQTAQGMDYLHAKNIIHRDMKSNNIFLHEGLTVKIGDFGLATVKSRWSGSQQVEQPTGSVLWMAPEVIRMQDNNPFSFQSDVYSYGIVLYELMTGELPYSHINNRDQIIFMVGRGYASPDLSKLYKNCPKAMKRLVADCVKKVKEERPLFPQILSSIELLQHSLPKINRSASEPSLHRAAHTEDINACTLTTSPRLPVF
Chain of MARK2 (Q7KZI7 whole entry): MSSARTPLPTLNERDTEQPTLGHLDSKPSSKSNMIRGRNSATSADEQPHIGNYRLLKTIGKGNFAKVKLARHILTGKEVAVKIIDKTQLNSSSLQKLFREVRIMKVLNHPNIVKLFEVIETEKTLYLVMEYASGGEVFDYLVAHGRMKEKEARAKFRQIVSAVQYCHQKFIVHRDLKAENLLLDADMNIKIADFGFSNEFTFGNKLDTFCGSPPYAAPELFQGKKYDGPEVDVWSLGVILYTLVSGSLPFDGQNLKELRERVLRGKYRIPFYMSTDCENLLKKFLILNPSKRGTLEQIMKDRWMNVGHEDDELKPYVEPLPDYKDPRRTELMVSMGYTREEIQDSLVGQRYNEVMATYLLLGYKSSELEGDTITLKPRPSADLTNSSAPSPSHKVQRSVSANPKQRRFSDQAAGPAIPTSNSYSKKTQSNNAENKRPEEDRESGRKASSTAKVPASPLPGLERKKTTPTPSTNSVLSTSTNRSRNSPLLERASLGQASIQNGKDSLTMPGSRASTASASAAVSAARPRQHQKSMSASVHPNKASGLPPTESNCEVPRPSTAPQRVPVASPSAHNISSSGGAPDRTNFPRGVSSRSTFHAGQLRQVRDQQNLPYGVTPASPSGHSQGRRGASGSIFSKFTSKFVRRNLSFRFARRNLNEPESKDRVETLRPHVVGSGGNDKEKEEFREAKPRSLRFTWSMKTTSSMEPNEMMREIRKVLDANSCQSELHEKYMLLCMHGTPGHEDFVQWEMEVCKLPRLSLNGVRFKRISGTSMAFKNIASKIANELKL

NC(N)=NCCC[C@H](NCN1CCN(C(=O)c2cc(Cc3n[nH]c(=O)c4ccccc34)ccc2F)CC1)C(=O)O [PPNR-4]
> 10 µM: all assays above
